# Patent US20170144969A1, “ANT[…], METHOD FOR PRODUCTION AND USES THEREOF” (priority 2014, published 2017)
# Where “and” joins values, the source holds several entries; their conditions need not be identical. Equal values may be shown once. Read-outs that look alike come from different tables or passages of the source.
# Columns and labels:
# [1] = tested on: Klebsiella pneumoniae (ATCC 700603); assay: Minimum Inhibitory Concentration, micro-dilution broth; assay type: cell-based; details: 24 h, 37° C.
# [2] = tested on: MRSA (ATCC 33591); assay: as above; assay type: cell-based, methicillin-resistant S. aureus; details: 24 h, 37° C.
# [3] = tested on: E. coli (MTCC 443); assay: as above; assay type: cell-based; details: 24 h, 37° C.
# [4] = tested on: vancomycin resistant Enterococcus faecium (VRE) (ATCC 51559); assay: as above; assay type: cell-based; details: 24 h, 37° C.
# [5] = tested on: human Red Blood Cells; assay: Haemolytic activity; details: human RBCs, 1 h at 37° C.
# [6] = Antibacterial efficacy (MIC) after incubation in 50% human plasma; details: for MIC / activity: up to 24 h incubation in 50% human plasma
# [7] = tested on: Enterococcus faecium (ATCC 19634); assay: Minimum Inhibitory Concentration, micro-dilution broth; assay type: cell-based
# [8] = tested on: S. aureus biofilms; assay: Bacterial biofilm disruption (pre-formed biofilm); assay type: cell-based; details: for reduction of cell viability in pre-existing biofilms: 24 h
# [9] = tested on: Ebola virus; assay type: cell-based
# [10] = tested on: Ebola virus; assay type: cell-based; remark: listed apart in the source
# [11] = tested on: HeLa cell line; assay: Cytotoxicity, MTT assay
# [12] = tested on: Ebola virus (strain ME718); assay type: cell-based
# [13] = tested on: Ebola virus; assay type: cell-based; remark: listed apart in the source
# [14] = tested on: S. aureus (MTCC 737); assay: Minimum Inhibitory Concentration, micro-dilution broth; assay type: cell-based, Staphylococcus aureus; details: 24 h, 37° C.
# [15] = tested on: RAW (macrophage) cell line; assay: Cytotoxicity, MTT assay
# [16] = tested on: Ebola virus (strain ME718); assay type: cell-based; remark: listed apart in the source
# [17] = tested on: E. coli; assay: Resistance study, serial passage at MIC/2; assay type: cell-based; details: 30 passages
# [18] = tested on: stationary-phase S. aureus; assay: Time-kill kinetics against stationary phase bacteria; assay type: cell-based; details: within 1 h of exposure, 50 μg/mL
# [19] = tested on: S. aureus; assay: Resistance study, serial passage at MIC/2; assay type: cell-based; details: 20 passages
# [20] = 24 h, 37° C., read-out: Minimum Inhibitory Concentration E. faceium
molecule,measurement,setting,value
"CCCCCCCCCCCC(=O)N(CCCNC(=O)[C@@H](N)Cc1ccccc1)CCCNC(=O)[C@@H](N)Cc1ccccc1.O=C(O)C(F)(F)F.O=C(O)C(F)(F)F [Compound 2, N,N-bis-[{3-(^LPhe)amino}propyl]dodecanamide bis(trifluoroacetate)]",Minimum Inhibitory Concentration K. pneumonie,[1],9.7 µM
same,Minimum Inhibitory Concentration MRSA,[2],4 µM
same,MIC,[3],12 µM
same,MIC,[4],2.7 µM
same,HC50,[5]; Table 3,205
same,MIC,[6]; after 2 h incubation with 50% plasma,10.7 µM
same,MIC,[6]; after 4 h incubation with 50% plasma,22 µM
same,MIC,[6]; before incubation with 50% human plasma,5.4 µM
same,MIC / activity,[6],remained same
"CCCCCCCCCCCC(=O)N(CCCNC(=O)[C@H](N)Cc1ccccc1)CCCNC(=O)[C@H](N)Cc1ccccc1 [Compound 6, N,N-bis-[{3-(^DPhe)amino}propyl]dodecanamide bis(trifluoroacetate)]",MIC,"[3]; Escherichia coli, MTCC443",12 µM
same,MIC,[4],2.9 µM
same,MIC,[7]; [20],3.3 µM
same,MIC,"[7]; Enterococcus faecium, ATCC19634, 24 h, read-out: Minimum Inhibitory Concentration E. faceium, 24 h, 37° C.",2 to 5 µM
same,stability in plasma,[6]; human plasma,stable in plasma
same,MIC / activity,[6],did not show any loss of activity
"CCCCCCCCCCCCCC(=O)N(CCCNC(=O)[C@H](N)CCCCN)CCCNC(=O)[C@H](N)CCCCN.O=C(O)C(F)(F)F.O=C(O)C(F)(F)F [Compound 16, N,N-bis-[{3-(^DLys)amino}propyl]tetradecanamide bis(trifluoroacetate)]",reduction of cell viability in pre-existing biofilms,[8]; 4×MIC,5 Log (CFU/mL)
same,"biofilm eradication, confocal microscopy",[8]; 10×MIC,significant biofilm eradication
same,"pre-formed biofilm mass, crystal violet staining",[8]; 10×MIC,enormous reduction in pre-formed biofilm mass
same,reduction of cell viability in pre-existing biofilms,[8]; 10×MIC,6 Log (CFU/mL)
same,reduction of cell viability in pre-existing biofilms,[8]; at its MIC concentration,more than 4 Log CFU/mL
same,rank of Ct value among 20 compounds,[9],one of the top two Ct values
same,"Ct value, replicate wells 1-3",[10],25.96 and 27.13 and 26.42 and 26.03 and 24.81 and 25.73 and 26.99 and 26.76 and 26.30 and 26.31 and 26.49 and 26.53 and 26.04 and 26.63 and 16.70 and 18.76 and 16.93 and 24.42 and 24.33 and 24.32 and 21.29 and 20.72 and 23.10 and 19.95 and 20.87 and 20.22 and 17.82 and 20.49 and 19.45
same,amount of viral genome present,[10],reduced the amount of viral genome present
same,EC50 (50% cells viability),[11]; MTT,> 70 µg/mL
same,toxicity,[11]; at its MIC,did not show any toxicity
same,Ct value Ave,[12],33.65 and 35.29
same,Drug - no drug Ct change,[12],3.76 and 5.40
same,MIC,[3],5.4 µM
same,rank of Ct value among 20 compounds,[13],one of the top two Ct values
same,MIC,[4],2.8 µM
same,MIC,[14],5.7 µM
same,EC50 (50% cells viability),[15]; MTT,> 70 µg/mL
same,toxicity,[15]; at its MIC,did not show any toxicity
same,Ct value Ave,[16],34.3 and 32.9
same,Drug - no drug Ct change,[16],7.02 and 5.64
same,fold increase in the MIC,[17],no change in the MIC
same,reductions in cell viability,[18],more than 3 Log CFU/mL
same,fold increase in the MIC,[19],no change in the MIC
"CCCCCCCCCCCC(=O)N(CCCNC(=O)[C@@H]1CCCN1)CCCNC(=O)[C@@H]1CCCN1.O=C(O)C(F)(F)F.O=C(O)C(F)(F)F [Compound 57, N,N-bis-[{3-(^LPro)amido}propyl]dodecanamide bis(trifluoroacetate)]",Minimum Inhibitory Concentration K. pneumonie,[1],>340 µM
same,Minimum Inhibitory Concentration MRSA,[2],130 µM
same,MIC,[3],90 µM
same,MIC,[4],112 µM
same,HC50,[5]; Table 6,918 µM
same,MIC,[14],60 µM
same,MIC,[7]; [20],78 µM
"CCCCCCCCCCCCCC(=O)N(CCCNC(=O)[C@@H]1CCCN1)CCCNC(=O)[C@@H]1CCCN1.O=C(O)C(F)(F)F.O=C(O)C(F)(F)F [Compound 58, N,N-bis-[{3-(^LPro)amido}propyl]tetradecanamide bis(trifluoroacetate)]",Minimum Inhibitory Concentration K. pneumonie,[1],135 µM
same,Minimum Inhibitory Concentration MRSA,[2],15 µM
same,MIC,[3],12 µM
same,MIC,[4],18 µM
same,HC50,[5]; Table 6,216 µM
same,MIC,[14],11 µM
same,MIC,[7]; [20],13 µM
"CCCCCCCCCCCCCCCC(=O)N(CCCNC(=O)[C@@H]1CCCN1)CCCNC(=O)[C@@H]1CCCN1.O=C(O)C(F)(F)F.O=C(O)C(F)(F)F [Compound 59, N,N-bis-[{3-(^LPro)amido}propyl]hexadecanamide bis(trifluoroacetate)]",Minimum Inhibitory Concentration K. pneumonie,[1],12 µM
same,Minimum Inhibitory Concentration MRSA,[2],7.2 µM
same,MIC,[3],4.4 µM
same,MIC,[4],2.7 µM
same,HC50,[5]; Table 6,76 µM
same,MIC,[14],2.8 µM
same,MIC,[7]; [20],4 µM
"CC[C@H]1OC(=O)[C@H](C)[C@@H](O[C@H]2C[C@@](C)(OC)[C@@H](O)[C@H](C)O2)[C@H](C)[C@@H](O[C@@H]2O[C@H](C)C[C@H](N(C)C)[C@H]2O)[C@](C)(O)C[C@@H](C)C(=O)[C@H](C)[C@@H](O)[C@]1(C)O [erythromycin, reference compound]",reduction of cell viability in pre-existing biofilms,[8]; 64×MIC,none of the antibiotics showed significant reduction
"CC(=O)NC[C@H]1CN(c2ccc(N3CCOCC3)c(F)c2)C(=O)O1 [linezolid, reference compound]",reduction of cell viability in pre-existing biofilms,[8]; 64×MIC,none of the antibiotics showed significant reduction
"CCn1cc(C(=O)O)c(=O)c2cc(F)c(N3CCNCC3)cc21 [norfloxacin, reference compound]",reduction of cell viability in pre-existing biofilms,[8]; 64×MIC,none of the antibiotics showed significant reduction
same,fold increase in the MIC,[19],around 800 fold
"CN[C@H](CC(C)C)C(=O)N[C@H]1C(=O)N[C@@H](CC(N)=O)C(=O)N[C@H]2C(=O)N[C@H]3C(=O)N[C@H](C(=O)N[C@H](C(=O)O)c4cc(O)cc(O)c4-c4cc3ccc4O)[C@H](O)c3ccc(c(Cl)c3)Oc3cc2cc(c3O[C@@H]2O[C@H](CO)[C@@H](O)[C@H](O)[C@H]2O[C@H]2C[C@](C)(N)[C@H](O)[C@H](C)O2)Oc2ccc(cc2Cl)[C@H]1O [vancomycin, reference compound]",reduction of cell viability in pre-existing biofilms,[8]; 64×MIC,none of the antibiotics showed significant reduction
colistin [reference compound],fold increase in the MIC,[17],~250 fold
